Laboratory results taken from ChEMBL document CHEMBL1926681, “Novel inhibitors of epidermal growth factor receptor: (4-(Arylamino)-7H-pyrrolo[2,3-d]pyrimidin-6-yl)(1H-indol-2-yl)methanones and (1H-indol-2-yl)(4-(phenylamino)thieno[2,3-d]pyrimidin-6-yl)methanones” (Bioorg Med Chem, 2012).
Active and inactive are the calls of the source. The calls are words filed in the database; no cut-off is given here.

Key:
[1] = molecular target: T1, Epidermal growth factor receptor (Homo sapiens, UniProt P00533); test: Inhibition of EGFR using poly(Glu,Tyr)4:1 as substrate and [gamma33P]ATP at 1 uM after 60 mins by scintillation counting
[2] = molecular target: Receptor tyrosine-protein kinase erbB-2 (Homo sapiens) (UniProt P04626); test: Inhibition of Erbb2 using poly(Glu,Tyr)4:1 as substrate and [gamma33P]ATP at 1 uM after 60 mins by scintillation counting
[3] = molecular target: Hepatocyte growth factor receptor (Homo sapiens) (UniProt P08581); test: Inhibition of MET using poly(Ala, Glu, Lys, Tyr) as substrate and [gamma33P]ATP at 1 uM after 60 mins by scintillation counting
[4] = molecular target: Tyrosine-protein kinase ABL1 (Homo sapiens) (UniProt P00519); test: Inhibition of ABL1 using poly(Ala, Glu, Lys, Tyr) as substrate and [gamma33P]ATP at 1 uM after 60 mins by scintillation counting
[5] = molecular target: Vascular endothelial growth factor receptor 2 (Homo sapiens) (UniProt P35968); test: Inhibition of VEGFR2 using poly(Glu,Tyr)4:1 as substrate and [gamma33P]ATP at 1 uM after 60 mins by scintillation counting
[6] = molecular target: T1, Epidermal growth factor receptor; test: Inhibition of EGFR using poly(Glu,Tyr)4:1 as substrate and [gamma33P]ATP after 60 mins by scintillation counting

Chain of Vascular endothelial growth factor receptor 2 (Homo sapiens) (P35968 whole entry): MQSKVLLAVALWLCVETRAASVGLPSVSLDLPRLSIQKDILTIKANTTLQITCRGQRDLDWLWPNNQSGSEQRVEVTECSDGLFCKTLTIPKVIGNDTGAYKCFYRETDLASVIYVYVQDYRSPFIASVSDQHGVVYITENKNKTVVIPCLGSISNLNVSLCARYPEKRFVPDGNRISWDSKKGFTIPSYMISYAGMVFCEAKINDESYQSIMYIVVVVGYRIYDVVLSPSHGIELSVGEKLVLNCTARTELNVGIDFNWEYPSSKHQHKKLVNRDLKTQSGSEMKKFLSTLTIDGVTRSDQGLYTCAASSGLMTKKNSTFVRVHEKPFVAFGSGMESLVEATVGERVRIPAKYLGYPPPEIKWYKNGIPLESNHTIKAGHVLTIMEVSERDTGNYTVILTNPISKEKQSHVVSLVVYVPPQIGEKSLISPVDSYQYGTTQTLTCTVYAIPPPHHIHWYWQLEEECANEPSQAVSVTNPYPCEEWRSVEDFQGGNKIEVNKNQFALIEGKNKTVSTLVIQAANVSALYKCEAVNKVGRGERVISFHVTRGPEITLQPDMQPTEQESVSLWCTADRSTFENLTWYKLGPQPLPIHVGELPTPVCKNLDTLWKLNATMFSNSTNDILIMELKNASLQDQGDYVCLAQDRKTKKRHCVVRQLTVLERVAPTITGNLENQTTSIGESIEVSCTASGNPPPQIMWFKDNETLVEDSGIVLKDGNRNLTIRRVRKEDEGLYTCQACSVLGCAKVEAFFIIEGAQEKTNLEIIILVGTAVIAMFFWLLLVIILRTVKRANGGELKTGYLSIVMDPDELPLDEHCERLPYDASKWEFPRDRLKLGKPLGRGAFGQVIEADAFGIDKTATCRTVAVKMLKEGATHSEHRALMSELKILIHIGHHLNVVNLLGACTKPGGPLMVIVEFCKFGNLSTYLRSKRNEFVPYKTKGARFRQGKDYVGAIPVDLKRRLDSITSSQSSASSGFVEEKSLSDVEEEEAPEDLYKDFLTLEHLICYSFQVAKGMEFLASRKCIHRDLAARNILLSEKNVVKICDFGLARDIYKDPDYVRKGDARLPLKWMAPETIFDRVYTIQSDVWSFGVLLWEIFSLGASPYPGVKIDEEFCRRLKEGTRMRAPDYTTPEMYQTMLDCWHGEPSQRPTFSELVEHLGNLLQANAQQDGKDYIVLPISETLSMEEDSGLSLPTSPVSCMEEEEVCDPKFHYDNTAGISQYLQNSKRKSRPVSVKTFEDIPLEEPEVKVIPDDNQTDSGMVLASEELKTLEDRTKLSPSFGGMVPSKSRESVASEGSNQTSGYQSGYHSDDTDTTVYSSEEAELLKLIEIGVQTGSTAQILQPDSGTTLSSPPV
Chain of Receptor tyrosine-protein kinase erbB-2 (Homo sapiens) (P04626 whole entry): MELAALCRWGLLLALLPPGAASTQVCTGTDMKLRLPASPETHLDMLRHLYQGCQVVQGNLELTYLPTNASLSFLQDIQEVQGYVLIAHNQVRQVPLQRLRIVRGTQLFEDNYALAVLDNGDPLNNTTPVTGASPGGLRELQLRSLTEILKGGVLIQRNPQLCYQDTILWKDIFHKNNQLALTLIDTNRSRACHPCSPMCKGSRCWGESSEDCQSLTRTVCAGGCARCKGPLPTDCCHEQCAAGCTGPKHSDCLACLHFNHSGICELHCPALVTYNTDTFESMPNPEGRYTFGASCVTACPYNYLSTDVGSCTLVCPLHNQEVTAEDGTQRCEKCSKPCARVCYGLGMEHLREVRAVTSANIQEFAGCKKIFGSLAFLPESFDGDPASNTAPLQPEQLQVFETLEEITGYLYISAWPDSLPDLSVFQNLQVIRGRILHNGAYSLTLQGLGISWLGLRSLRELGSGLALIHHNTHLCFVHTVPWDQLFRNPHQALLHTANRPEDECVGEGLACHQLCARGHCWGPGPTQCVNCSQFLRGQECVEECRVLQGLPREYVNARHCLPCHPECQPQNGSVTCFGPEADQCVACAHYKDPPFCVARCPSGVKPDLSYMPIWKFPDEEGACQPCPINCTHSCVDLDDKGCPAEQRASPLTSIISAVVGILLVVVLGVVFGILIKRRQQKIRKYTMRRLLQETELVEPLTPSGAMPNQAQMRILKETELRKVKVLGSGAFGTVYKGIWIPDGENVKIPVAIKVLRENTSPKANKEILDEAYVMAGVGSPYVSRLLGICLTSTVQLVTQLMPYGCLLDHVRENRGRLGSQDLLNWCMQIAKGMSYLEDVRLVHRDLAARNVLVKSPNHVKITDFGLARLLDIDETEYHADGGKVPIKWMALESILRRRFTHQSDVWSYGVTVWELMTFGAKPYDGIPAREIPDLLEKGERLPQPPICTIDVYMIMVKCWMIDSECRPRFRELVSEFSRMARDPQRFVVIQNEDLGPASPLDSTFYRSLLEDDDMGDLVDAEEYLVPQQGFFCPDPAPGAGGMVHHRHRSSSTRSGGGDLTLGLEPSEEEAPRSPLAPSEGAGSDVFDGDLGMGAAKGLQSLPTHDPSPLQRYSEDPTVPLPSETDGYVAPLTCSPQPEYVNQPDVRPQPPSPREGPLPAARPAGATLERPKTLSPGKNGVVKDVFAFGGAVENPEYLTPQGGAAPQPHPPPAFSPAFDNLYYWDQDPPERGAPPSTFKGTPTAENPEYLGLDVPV
Chain of Hepatocyte growth factor receptor (Homo sapiens) (P08581 whole entry): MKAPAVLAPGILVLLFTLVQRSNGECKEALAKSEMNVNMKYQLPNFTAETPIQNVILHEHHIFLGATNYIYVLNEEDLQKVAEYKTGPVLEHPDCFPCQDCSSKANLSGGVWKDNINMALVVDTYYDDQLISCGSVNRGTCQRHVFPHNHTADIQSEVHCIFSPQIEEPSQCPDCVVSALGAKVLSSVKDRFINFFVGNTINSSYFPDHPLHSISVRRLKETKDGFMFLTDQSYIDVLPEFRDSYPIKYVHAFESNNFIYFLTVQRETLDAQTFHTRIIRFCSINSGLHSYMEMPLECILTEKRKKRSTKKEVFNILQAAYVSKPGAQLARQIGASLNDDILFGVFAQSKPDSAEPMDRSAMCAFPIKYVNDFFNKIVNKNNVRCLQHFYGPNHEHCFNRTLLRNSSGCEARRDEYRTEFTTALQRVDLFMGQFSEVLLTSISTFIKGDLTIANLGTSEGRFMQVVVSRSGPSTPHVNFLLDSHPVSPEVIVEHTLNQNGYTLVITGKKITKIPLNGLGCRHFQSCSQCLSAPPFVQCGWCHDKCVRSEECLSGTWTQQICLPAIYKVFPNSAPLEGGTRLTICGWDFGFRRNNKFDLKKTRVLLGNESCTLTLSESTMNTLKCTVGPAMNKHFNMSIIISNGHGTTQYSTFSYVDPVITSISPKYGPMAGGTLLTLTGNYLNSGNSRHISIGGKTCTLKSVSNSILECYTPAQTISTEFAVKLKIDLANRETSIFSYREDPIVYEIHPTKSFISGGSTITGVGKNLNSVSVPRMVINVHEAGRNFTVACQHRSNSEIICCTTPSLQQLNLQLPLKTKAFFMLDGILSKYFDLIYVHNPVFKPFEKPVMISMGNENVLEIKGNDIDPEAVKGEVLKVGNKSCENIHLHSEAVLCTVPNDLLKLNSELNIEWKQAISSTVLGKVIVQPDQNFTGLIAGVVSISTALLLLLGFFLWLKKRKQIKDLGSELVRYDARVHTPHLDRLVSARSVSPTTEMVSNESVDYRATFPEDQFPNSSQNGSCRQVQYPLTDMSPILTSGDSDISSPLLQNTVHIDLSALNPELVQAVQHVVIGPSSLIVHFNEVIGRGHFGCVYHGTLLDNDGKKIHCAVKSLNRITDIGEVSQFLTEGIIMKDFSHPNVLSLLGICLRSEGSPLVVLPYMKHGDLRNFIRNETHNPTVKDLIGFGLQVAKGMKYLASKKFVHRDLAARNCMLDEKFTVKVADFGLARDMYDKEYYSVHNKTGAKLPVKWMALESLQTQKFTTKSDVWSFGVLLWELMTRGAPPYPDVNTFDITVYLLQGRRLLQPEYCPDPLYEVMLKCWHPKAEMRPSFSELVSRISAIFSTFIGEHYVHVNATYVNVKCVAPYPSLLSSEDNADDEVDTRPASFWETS
Chain of Tyrosine-protein kinase ABL1 (Homo sapiens) (P00519 whole entry): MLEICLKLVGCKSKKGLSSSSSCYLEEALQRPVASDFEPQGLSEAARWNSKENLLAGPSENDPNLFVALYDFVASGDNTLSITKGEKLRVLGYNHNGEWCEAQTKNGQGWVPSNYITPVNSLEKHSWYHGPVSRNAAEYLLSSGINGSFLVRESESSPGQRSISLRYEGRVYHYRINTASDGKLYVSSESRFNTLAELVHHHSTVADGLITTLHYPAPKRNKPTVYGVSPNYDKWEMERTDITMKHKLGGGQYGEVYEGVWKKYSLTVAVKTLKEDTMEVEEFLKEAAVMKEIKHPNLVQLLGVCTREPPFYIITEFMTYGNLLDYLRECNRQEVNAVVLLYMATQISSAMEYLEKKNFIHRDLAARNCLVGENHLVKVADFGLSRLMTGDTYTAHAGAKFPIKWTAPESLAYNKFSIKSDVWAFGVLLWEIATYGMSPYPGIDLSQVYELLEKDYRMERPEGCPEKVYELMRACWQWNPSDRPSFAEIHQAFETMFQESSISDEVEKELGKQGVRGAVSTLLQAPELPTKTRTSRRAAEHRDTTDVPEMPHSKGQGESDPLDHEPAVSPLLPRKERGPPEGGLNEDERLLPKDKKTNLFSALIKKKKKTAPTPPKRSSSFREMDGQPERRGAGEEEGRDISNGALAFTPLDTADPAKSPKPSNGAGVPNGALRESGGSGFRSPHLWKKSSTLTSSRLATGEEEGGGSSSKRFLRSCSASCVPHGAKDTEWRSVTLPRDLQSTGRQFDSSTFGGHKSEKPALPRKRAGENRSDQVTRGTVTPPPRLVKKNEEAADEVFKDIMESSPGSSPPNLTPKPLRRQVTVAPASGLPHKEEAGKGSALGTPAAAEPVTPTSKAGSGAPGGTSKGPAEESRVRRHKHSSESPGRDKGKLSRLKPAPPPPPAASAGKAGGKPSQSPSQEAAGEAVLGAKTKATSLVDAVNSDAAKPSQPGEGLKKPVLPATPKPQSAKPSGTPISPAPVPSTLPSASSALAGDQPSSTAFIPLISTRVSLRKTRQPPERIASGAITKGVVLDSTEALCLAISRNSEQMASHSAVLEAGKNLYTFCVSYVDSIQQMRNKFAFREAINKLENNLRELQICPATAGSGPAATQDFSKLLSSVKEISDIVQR

O=C(c1cc2ccccc2[nH]1)c1cc2c(Nc3ccc(OCc4cccc(F)c4)cc3Cl)ncnc2[nH]1
inhibition [1]: 77% | inhibition [2]: 13% | inhibition [3]: inactive | inhibition [4]: inactive | inhibition [5]: 53%

O=C(c1cc2ccccc2[nH]1)c1cc2c(Nc3cccc(I)c3)ncnc2[nH]1
inhibition [1]: 88% | inhibition [2]: 52% | inhibition [3]: inactive | inhibition [4]: inactive | inhibition [5]: 10%

O=C(c1cc2ccccc2[nH]1)c1cc2c(Nc3cccc(C(F)(F)F)c3)ncnc2s1
inhibition [1]: 79% | inhibition [2]: 42% | inhibition [3]: inactive | inhibition [4]: inactive | inhibition [5]: 29%

O=C(c1cc2ccccc2[nH]1)c1cc2c(Nc3ccc(Br)cc3F)ncnc2[nH]1
inhibition [1]: 50% | inhibition [2]: 14% | inhibition [3]: inactive | inhibition [4]: inactive | inhibition [5]: 22%

O=C(c1cc2ccccc2[nH]1)c1cc2c(Nc3ccc(Cl)cc3)ncnc2[nH]1
inhibition [1]: 68% | inhibition [2]: 24% | inhibition [3]: inactive | inhibition [4]: inactive | inhibition [5]: 47%

O=C(c1cc2ccccc2[nH]1)c1cc2c(Nc3cccc(I)c3)ncnc2s1
inhibition [1]: 73% | inhibition [2]: 75% | inhibition [3]: inactive | inhibition [4]: inactive | inhibition [5]: 0%

O=C(c1cc2ccccc2s1)c1cc2c(Nc3ccc(F)c(Cl)c3)ncnc2s1
inhibition [1]: 99% | inhibition [2]: 76% | IC50 [6]: 10.8 nM | inhibition [3]: inactive | inhibition [4]: inactive | inhibition [5]: 22%

C#Cc1cccc(Nc2ncnc3[nH]c(C(=O)c4cc5ccccc5[nH]4)cc23)c1
inhibition [1]: 83% | inhibition [2]: 70% | inhibition [3]: inactive | inhibition [4]: inactive | inhibition [5]: 5%

O=C(c1cc2ccccc2[nH]1)c1cc2c(Nc3ccc(Cl)cc3)ncnc2s1
inhibition [1]: 80% | inhibition [2]: 46% | inhibition [3]: inactive | inhibition [4]: inactive | inhibition [5]: 19%

COc1ccc2[nH]c(C(=O)c3cc4c(Nc5cccc(I)c5)ncnc4[nH]3)cc2c1
inhibition [1]: 88% | inhibition [2]: 25% | inhibition [3]: inactive | inhibition [4]: inactive | inhibition [5]: 17%

O=C(c1cc2ccccc2[nH]1)c1cc2c(Nc3ccc(Br)cc3F)ncnc2s1
inhibition [1]: 82% | inhibition [2]: 51% | inhibition [3]: inactive | inhibition [4]: inactive | inhibition [5]: 46%

O=C(c1cc2ccccc2[nH]1)c1cc2c(Nc3ccc(O)cc3)ncnc2[nH]1
inhibition [1]: 57% | inhibition [2]: 7% | inhibition [3]: inactive | inhibition [4]: inactive | inhibition [5]: 31%

O=C(c1cc2ccccc2[nH]1)c1cc2c(NCc3ccccc3)ncnc2[nH]1
inhibition [1]: 55% | inhibition [3]: inactive | inhibition [4]: inactive | inhibition [5]: 13%

O=C(c1cc2cc(O)ccc2[nH]1)c1cc2cncnc2[nH]1
inhibition [1]: 0% | inhibition [2]: 0% | inhibition [3]: inactive | inhibition [4]: inactive | inhibition [5]: 0%

COc1cnc2[nH]c(C(=O)c3cc4c(Nc5cccc(I)c5)ncnc4[nH]3)cc2c1
inhibition [1]: 77% | inhibition [2]: 20% | inhibition [3]: inactive | inhibition [4]: inactive | inhibition [5]: 20%

O=C(c1cc2ccccc2[nH]1)c1cc2c(NCc3ccccc3)ncnc2s1
inhibition [1]: 77% | inhibition [2]: 38% | inhibition [3]: inactive | inhibition [4]: inactive | inhibition [5]: 17%

CN(c1ccc(F)c(Cl)c1)c1ncnc2sc(C(=O)c3cc4ccccc4[nH]3)cc12
inhibition [1]: 22% | inhibition [2]: 83% | inhibition [3]: inactive | inhibition [4]: inactive | inhibition [5]: 23%

O=C(c1cc2ccccc2o1)c1cc2c(Nc3ccc(F)c(Cl)c3)ncnc2s1
inhibition [1]: 85% | inhibition [2]: 88% | inhibition [3]: inactive | inhibition [4]: inactive | inhibition [5]: 51%

O=C(c1cc2ccccc2[nH]1)c1cc2c(Nc3ccc(F)c(Cl)c3)ncnc2[nH]1
inhibition [1]: 88% | inhibition [2]: 22% | inhibition [3]: inactive | inhibition [4]: inactive | inhibition [5]: 47%

C#Cc1cccc(Nc2ncnc3sc(C(=O)c4cc5ccccc5[nH]4)cc23)c1
inhibition [1]: 93% | inhibition [2]: 60% | IC50 [6]: 18.7 nM | inhibition [3]: inactive | inhibition [4]: inactive | inhibition [5]: 9%

O=C(c1cc2ccccc2[nH]1)c1cc2c(Nc3ccc(OCc4cccc(F)c4)cc3Cl)ncnc2s1
inhibition [1]: 91% | inhibition [2]: 57% | IC50 [6]: 18.5 nM | inhibition [3]: inactive | inhibition [4]: inactive | inhibition [5]: 29%

C[C@@H](Nc1ncnc2[nH]c(C(=O)c3cc4ccccc4[nH]3)cc12)c1ccccc1
inhibition [1]: 82% | inhibition [2]: 37% | inhibition [3]: inactive | inhibition [4]: inactive | inhibition [5]: 28%

O=C(c1cc2ccccc2[nH]1)c1cc2c(Nc3ccc(F)cc3)ncnc2s1
inhibition [1]: 96% | inhibition [2]: 50% | IC50 [6]: 43.7 nM | inhibition [3]: inactive | inhibition [4]: inactive | inhibition [5]: 45%

O=C(c1cc2ccccc2[nH]1)c1cc2c(Nc3ccc(C(F)(F)F)cc3)ncnc2s1
inhibition [1]: 43% | inhibition [2]: 34% | inhibition [3]: inactive | inhibition [4]: inactive | inhibition [5]: 24%

C[C@@H](Nc1ncnc2sc(C(=O)c3cc4ccccc4[nH]3)cc12)c1ccccc1
inhibition [1]: 88% | inhibition [2]: 61% | inhibition [3]: inactive | inhibition [4]: inactive | inhibition [5]: 5%
